# Experimental data published in patent US20100028469A1, “Extracts of Cranberry and Methods of Using Thereof” (priority 2008, published 2010).
# Key:
# [1] = Human pharmacokinetic study, urine (DART TOF-MS); assay type: in vivo
# Protocol: (§1) Cranberry extracts 5 and 6 were prepared by HerbalScience Singapore Pte. Ltd. and prepared as 150-mg and 140-mg capsules, respectively. Each pharmacokinetic study (1 per extract) consisted of five healthy consenting adults ranging in age from 25 to 50 were instructed not to consume foods rich in phenolics 24 hours prior to the initiation of the study. A certified individual collected urine samples at several time intervals between 0 and 480 minutes after two capsules of a cranberry extract were ingested immediately after the time zero time point. Blood samples were handled with approved protocols and precautions, centrifuged to remove cells and the serum fraction was collected and frozen. Blood was not treated with heparin to avoid any analytical interference. Serum samples were stored frozen at −20° C. until analysis. The serum was extracted with an equal volume of neat ethanol (USP) to minimize background of proteins, peptides, and polysaccharides present in serum. The ethanol extract was centrifuged at 9300×g for 10 minutes at 4° C., the supernatant was removed, concentrated to 200 μL volume which was then used for DART TOF-MS analyses (FIG. 10). Urine samples were handled with approved protocols and precautions and frozen. Serum samples were stored frozen until analysis. The urine samples were analyzed neat by DART TOF-MS (FIGS. 11 and 12).
# [2] = Human pharmacokinetic study, serum (DART TOF-MS); assay type: in vivo; settings: 5 healthy adults, Extract 5 300 mg oral
# Protocol: as §1
Molecule,"time of appearance in urine ([1]; human, in vivo, po) [h]","time through which urine levels increased (declined thereafter) ([1]; human, in vivo, po) [h]","presence in urine at 8 hours post-ingestion ([1]; in vivo, po)","time of appearance in urine ([1]; in vivo, po) [h]","time through which urine levels increased (declined thereafter) ([1]; in vivo, po) [h]",further results
O=CC=Cc1ccccc1 [cinnamaldehyde],≤ 1,2,still present,–,–,–
NCC(=O)CCC(=O)O [aminolevulenic acid],–,–,–,≤ 1,2,–
COc1ccc(C2COc3cc(O)ccc3C2)c(O)c1 (stereo not shown) [vestitol],–,–,still present,≤ 1,2,–
C[C@@H](O)[C@H](N)C(=O)O [L-threonine],≤ 1,2,–,–,–,–
CC1=CC(=O)CC(C)(C)[C@@]1(O)/C=C/C(C)=C\C(=O)O [abscisic acid],–,–,–,–,–,time after which undetectable in serum [2]: 180 min; time through which serum levels increased (declined thereafter) [2]: about 40 minutes; abundance in urine relative to other bioactives ([1]; Extract 5 300 mg oral): most abundant; time of peak level in urine ([1]; Extract 5 300 mg oral): 2 h; presence in urine at 8 hours post-ingestion ([1]; two vegcaps Extract 6 oral): still present; time through which urine levels increased (declined thereafter) ([1]; two vegcaps Extract 6 oral): 2 h
chitosan,–,–,still present,≤ 1,2,–
S-petasine,–,–,–,–,–,time after which undetectable in serum [2]: 180 min; time through which serum levels increased (declined thereafter) [2]: about 40 minutes; time through which urine levels increased (declined thereafter) ([1]; two vegcaps Extract 6 oral): 2 h
O=C(O)c1ccc(O)cc1 [4-hydroxybenzoic acid],≤ 1,2,still present,–,–,–
c1ccc(-c2cc3ccccc3[nH]2)cc1 [α-phenylindol],–,–,still present,≤ 1,2,–
